Test results: article doi:10.1101/2023.05.15.540887, “Comparative analysis of drug-like EP300/CREBBP acetyltransferase inhibitors” (bioRxiv, 2023)

Key:
[1] = system: histone H3 acetylation in MCF-7 cells; assay: Western blot analysis of histone acetylation (H3K18Ac, H3K27Ac, H3K23Ac) in MCF-7 cells; assay type: cell-based, human; conditions: 3 h, 8 nM – 5 μM, compared among 1-3
Experimental: Next, we sought to quantitatively benchmark the properties of 1-3 in living cells. EP300 and CREBBP modify a wide variety of substrates in biochemical experiments and upon ectopic overexpression.[2] However, two well-characterized cellular histone lysine substrates of these enzymes are H3K18 and H3K27.[26] Even though H3K18Ac is the more abundant of the two markers, H3K27Ac is also of great interest due to its association with active enhancer regions. […] Cells were treated with escalating doses of 1-3 and harvested at 3 h to avoid overt cytotoxicity and allow the direct effects on acetylation to be observed (Fig. 3a). […] Control experiments indicated levels of H3K23Ac, which is not regulated by EP300/CREBBP, were not affected.
MCF-7 cells were plated in 1700 µL culture medium at 1 x 10^6 cells per well in 6-well dishes. After 16-24 h cells were treated with 300 µL of 1-3-containing media to yield a final concentration of 8 nM, 40 nM, 200 nM, 1 µM, or 5 µM EP300/CREBBP inhibitor (0.1% final concentrations of DMSO). Controls were treated with vehicle DMSO (0.1%). […]
Histone samples were quantified using the Precision Red Protein Assay (Cytoskeleton #ADV02). […]

[2] = system: MOLT-4; assay: NCI-60 growth inhibition (sulforhodamine B); assay type: cell-based, human; conditions: MOLT-4 (Leukemia), negative log of Molar conc., LCONC -8
[3] = system: HCT-15; assay: NCI-60 growth inhibition (sulforhodamine B); assay type: cell-based, human; conditions: HCT-15 (Colon Cancer), negative log of Molar conc., LCONC -8
[4] = system: OVCAR-4; assay: NCI-60 growth inhibition (sulforhodamine B); assay type: cell-based, human; conditions: OVCAR-4 (Ovarian Cancer), negative log of Molar conc., LCONC -8
[5] = system: SN12C; assay: NCI-60 growth inhibition (sulforhodamine B); assay type: cell-based; conditions: Homo sapiens, Renal Cancer, negative log of Molar value
[6] = Homo sapiens, read-out: IC50 NLOGVALUE (converted)
[7] = Homo sapiens, read-out: GI50 NLOGVALUE (converted)
[8] = Homo sapiens, read-out: LC50 NLOGVALUE

## C[C@H](CN[C@@H](C(=O)Nc1ccc(-c2cnn(C)c2)cn1)c1ccccc1)c1ccc(C#N)cc1 [CPI-1612]
[1]
  inhibition of histone acetylation (H3K18Ac, H3K27Ac), Western blot: most potent activity
[2]; Homo sapiens, read-out: GI50 NLOGVALUE
  GI50: < 10 nM
[2]; [6]
  IC50: 20.9 nM
[2]
  TGI NLOGVALUE: 4.53
[3]
  TGI NLOGVALUE: 4
[3]; [7]
  GI50: 16.2 nM
[3]; [6]
  IC50: 53.7 nM
[3]; [8]
  CC50: > 100000 nM
[4]; [7]
  GI50: 2040 nM
[4]; Homo sapiens, read-out: IC50 NLOGVALUE
  IC50: > 100000 nM
[4]; [8]
  CC50: > 100000 nM
[4]
  TGI NLOGVALUE: 4
[5]; LCONC -8, EXPID 2301NS84, read-out: GI50 NLOGVALUE (converted)
  GI50: 224 nM
[5]; LCONC -8, EXPID 2301NS84, read-out: IC50 NLOGVALUE
  IC50: > 100000 nM
[5]; LCONC -8, EXPID 2301NS84, read-out: LC50 NLOGVALUE
  CC50: > 100000 nM
